Measurements taken from patent publication US7230029B2, “Fatty acid analogues for the treatment of proliferative skin disorders” (Thia Medica AS, priority 2000, dated 2007).

Key:
Tg-1 = Tg-1 expression by indirect immunofluorescence microscopy; type: cell-based, human
From the text: (§1) In addition, expression of Inv and Tg-1 was examined by indirect immunofluorescence microscopy (FIG. 3).

CD36/FAT = CD36/FAT mRNA expression in NHK treated with PPAR activators and TTA; type: cell-based, human; settings: NHK treated over a period of three days
Description: (§2) Normal adult human epidermal keratinocytes were isolated from human skin obtained after plastic surgery. First passage keratinocytes were grown in serum-free KGM (GIBCO BRL/Life Technologies, Inc.) and replated in 75 cm^2 culture flask or in 96-well microtiterplates preheated at 37° C. at a density of 3500 cells/well. Cells were incubated in a humidified atmosphere of 5% CO2 at 37° C. When cells reached 40% confluence they were treated with growth medium containing selective PPAR ligands (either alone or in combinations as indicated), tetradecylthioacetic acid (TTA) or 1,2 mM Ca^2+. Wy14643 was obtained from Calbiochem, BRL49653 was kindly provided by J. Fleckner, Novo Nordisk), L165041 was kindly provided by D. E. Moller (Merck Research Laboratories, Rahway, N.J.). TTA was manufactured in accordance with example 1. Medium was changed every day. For differentiation, keratinocytes at 40% confluence (day 0) were treated with 1,2 mM CaCl2. Medium was changed every other day. HaCaT cells were obtained from L. Aarenstrup (Danish Cancer Society, Denmark). HaCaT cells were cultured in Dulbecco's modified Eagle's Medium (DMEM) with 10% fetal calf serum (FCS) and antibiotics (100 u/ml penicillin, 1 mg/ml streptomycin sulphate) in a humidified atmosphere of 5% CO2 at 37° C. Medium was changed every other day.
(§3) To evaluate how TTA and the various PPAR activators affected expression of a known PPAR responsive gene and differentiation of keratinocytes, we first measured the mRNA levels of CD36/FAT and the two differentiation markers, Inv and Tg-1 in NHK treated with PPAR selective activators and TTA over a period of three days (FIG. 1a).

[1] = tested on: transglutaminase type 1 (Tg-1); test: Tg-1 expression by ELISA; type: cell-based, human; settings: normalized to cell number
Description: as §2, with “HaCaT cells were obtained from L. Aarenstrup (Danish Cancer Society, Denmark). HaCaT cells were cultured in Dulbecco's modified Eagle's Medium (DMEM) with 10% fetal calf serum (FCS) and antibiotics (100 u/ml penicillin, 1 mg/ml streptomycin sulphate) in a humidified atmosphere of 5% CO2 at 37° C. Medium was changed every other day.” left out
Cells were subjected to two freeze-thaw cycles and transglutaminase type 1 (Tg-1) was determined by ELISA. […] The amount of transglutaminase was measured by quantifying the OPD reaction with an ELISA-reader at 490 nm and subtracting background at 650 nm. […]
(§4) Differentiation of keratinocytes is correlated with an increase in cell size. […] In parallel the expression of Tg-1 was monitored using an ELISA-based assay (FIG. 3b).

Inv [2] = test: Inv expression by indirect immunofluorescence microscopy; type: cell-based, human
From the text: as §1

NHK cells = test: Viability/proliferation by modified MTT assay; type: cell-based, human
Description: as §2, with “HaCaT cells were obtained from L. Aarenstrup (Danish Cancer Society, Denmark). HaCaT cells were cultured in Dulbecco's modified Eagle's Medium (DMEM) with 10% fetal calf serum (FCS) and antibiotics (100 u/ml penicillin, 1 mg/ml streptomycin sulphate) in a humidified atmosphere of 5% CO2 at 37° C. Medium was changed every other day.” left out
Viability/proliferation was measured by a modification of the MTT assay introduced by Mosmann T (J Immunol Methods 65:55–63, 1983). […] The amount of formazan was quantified in an ELISA-reader at 540 nm. […]
as §4

Inv [3] = test: Inv mRNA expression in NHK (RT-PCR); type: cell-based, human; settings: NHK treated over a period of three days
Description: as §2, with “HaCaT cells were cultured in Dulbecco's modified Eagle's Medium (DMEM) with 10% fetal calf serum (FCS) and antibiotics (100 u/ml penicillin, 1 mg/ml streptomycin sulphate) in a humidified atmosphere of 5% CO2 at 37° C. Medium was changed every other day.” left out
as §3

Inv [4] = test: Inv protein expression in NHK by Western blotting; type: cell-based, human
Description: as §2

human keratinocytes = test: Keratinocyte differentiation marker gene expression (summary statements); type: cell-based
Description: In the present study we have in detail analyzed the expression of the PPARs during ex vivo differentiation of human keratinocytes, in isolated basal and suprabasal cells, and in sections of human skin. […] All three PPAR subtype selective ligands either alone or in combination only modestly effected keratinocyte proliferation.
as §2, with “HaCaT cells were cultured in Dulbecco's modified Eagle's Medium (DMEM) with 10% fetal calf serum (FCS) and antibiotics (100 u/ml penicillin, 1 mg/ml streptomycin sulphate) in a humidified atmosphere of 5% CO2 at 37° C. Medium was changed every other day.” left out

SMILES	Tg-1 expression (Tg-1)	expression of CD36/FAT mRNA (CD36/FAT)	Tg-1 expression [1]	Inv expression (Inv [2])	inhibition of NHK cell proliferation (NHK cells)	Inv mRNA expression (Inv [3])	Inv protein expression (Inv [4])	keratinocyte differentiation marker gene expression (human keratinocytes)
[Ca+2].[Cl-].[Cl-] [CaCl2]	comparable levels of expression	did not induce expression of CD36/FAT	significantly induced Tg-1 expression	comparable levels of expression	only marginal			
CCCc1c(OCCCOc2ccc(OCC(=O)O)cc2)ccc(C(C)=O)c1O [L165041]		induced a significant dose-dependent expression of CD36		in a dose-dependent manner induced Inv expression		dose-dependent induction of Inv mRNA expression	dose-dependent induction of Inv protein	induced in a dose-dependent manner expression of involucrin
Cc1cccc(Nc2cc(Cl)nc(SCC(=O)O)n2)c1C [Wy14643]		induced expression of CD36/FAT				modest induction of Inv mRNA expression		
